Experimental data: ChEMBL document CHEMBL5523727, “Discovery of KT-413, a Targeted Protein Degrader of IRAK4 and IMiD Substrates Targeting MYD88 Mutant Diffuse Large B-Cell Lymphoma” (J Med Chem, 2024)

Key:
[1] = Metabolic stability in rat liver microsomes assessed as intrinsic clearance at 1 uM measured upto 60 mins in presence of NADPH by UPLC/MS-MS analysis; type: ADME, Microsome; settings: read-out: CLH
[2] = biological target: T1, Protein cereblon/Interleukin-1 receptor-associated kinase 4 (Homo sapiens, UniProt Q9NWZ3+Q96SW2); assay: PROTAC activity at CRBN/IRAK4 in human OCI-Ly10 cells assessed as induction of IRAK4 degradation measured after 24 hrs by MSD assay; type: cell-based
Target sequence in this assay (Q9NWZ3 whole entry): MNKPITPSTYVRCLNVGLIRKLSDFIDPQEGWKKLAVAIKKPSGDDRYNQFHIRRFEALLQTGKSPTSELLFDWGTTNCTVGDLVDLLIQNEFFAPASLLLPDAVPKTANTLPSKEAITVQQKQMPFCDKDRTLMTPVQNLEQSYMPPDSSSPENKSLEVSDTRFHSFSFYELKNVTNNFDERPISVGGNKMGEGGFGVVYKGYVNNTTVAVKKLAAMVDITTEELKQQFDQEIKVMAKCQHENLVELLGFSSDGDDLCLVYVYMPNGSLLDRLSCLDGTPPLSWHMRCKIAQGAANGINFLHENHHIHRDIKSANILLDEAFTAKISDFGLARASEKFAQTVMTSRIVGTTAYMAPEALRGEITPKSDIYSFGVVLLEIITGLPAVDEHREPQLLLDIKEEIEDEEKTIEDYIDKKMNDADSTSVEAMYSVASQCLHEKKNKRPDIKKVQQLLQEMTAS
Target sequence in this assay (Q96SW2 whole entry): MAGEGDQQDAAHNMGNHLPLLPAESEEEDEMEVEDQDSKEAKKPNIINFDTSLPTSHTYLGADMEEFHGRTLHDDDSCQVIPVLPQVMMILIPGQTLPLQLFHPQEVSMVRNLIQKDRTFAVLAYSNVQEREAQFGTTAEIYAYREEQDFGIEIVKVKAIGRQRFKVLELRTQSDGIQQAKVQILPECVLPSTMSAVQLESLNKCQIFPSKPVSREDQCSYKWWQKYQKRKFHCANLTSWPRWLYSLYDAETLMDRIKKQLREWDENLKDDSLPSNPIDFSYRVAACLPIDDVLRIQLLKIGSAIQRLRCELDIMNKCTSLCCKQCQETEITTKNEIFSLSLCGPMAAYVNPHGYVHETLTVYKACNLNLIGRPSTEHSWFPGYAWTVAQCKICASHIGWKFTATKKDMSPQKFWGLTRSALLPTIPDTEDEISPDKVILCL

[3] = Metabolic stability in human liver microsomes assessed as intrinsic clearance at 1 uM measured upto 60 mins in presence of NADPH by UPLC/MS-MS analysis; type: ADME, Microsome; settings: read-out: CLH
OCI-Ly10 = assay: Antiproliferative activity against human OCI-Ly10 cells measured after 4 days by CellTiter-Glo Luminescent Cell Viability Assay; type: functional, cell-based; settings: Homo sapiens, OCI-Ly10, 96 h
Protein cereblon = Protein cereblon (Homo sapiens, UniProt Q96SW2); assay: Binding affinity to CRBN (unknown origin) by HTRF assay
Protein cereblon, sequence (Q96SW2 whole entry): as above

Cereblon/Ikaros = Cereblon/Ikaros (Homo sapiens, UniProt Q96SW2+Q13422); assay: PROTAC activity at CRBN/Ikaros in human OCI-Ly10 cells assessed as induction of Ikaros degradation measured after 24 hrs by MSD assay; type: cell-based
Cereblon/Ikaros, sequence (Q96SW2 whole entry): as above
Cereblon/Ikaros, sequence (Q13422 whole entry): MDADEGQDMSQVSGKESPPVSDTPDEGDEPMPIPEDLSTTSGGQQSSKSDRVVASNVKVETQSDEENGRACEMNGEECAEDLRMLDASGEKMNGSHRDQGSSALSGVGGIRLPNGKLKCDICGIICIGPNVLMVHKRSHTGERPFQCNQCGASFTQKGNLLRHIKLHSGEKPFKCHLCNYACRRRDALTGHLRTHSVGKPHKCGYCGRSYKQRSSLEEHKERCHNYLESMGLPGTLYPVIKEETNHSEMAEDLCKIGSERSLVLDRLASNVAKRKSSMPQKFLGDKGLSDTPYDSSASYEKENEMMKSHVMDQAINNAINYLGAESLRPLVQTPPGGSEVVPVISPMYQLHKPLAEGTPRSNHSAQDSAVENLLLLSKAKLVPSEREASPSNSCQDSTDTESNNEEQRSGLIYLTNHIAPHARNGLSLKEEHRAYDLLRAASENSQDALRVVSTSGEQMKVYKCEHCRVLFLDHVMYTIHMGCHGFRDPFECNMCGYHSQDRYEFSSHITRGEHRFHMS

[4] = Passive permeability of the compound in wild type MDCK cells across apical to basolateral side at 1 uM measured for 120 mins by LC-MS/MS analysis; type: ADME, cell-based, Canis lupus familiaris; settings: dog, read-out: permeability
[5] = biological target: Protein cereblon/Interleukin-1 receptor-associated kinase 4 (Homo sapiens, UniProt Q96SW2+Q9NWZ3); assay: Binding affinity to CRBN/IRAK4 […] assessed as dissociation constant by DiscoverX Kd Elect assay
Protein cereblon/Interleukin-1 receptor-associated kinase 4 (Homo sapiens, UniProt Q96SW2+Q9NWZ3), sequence (Q9NWZ3 whole entry): as the sequence (Q9NWZ3 whole entry) above
Protein cereblon/Interleukin-1 receptor-associated kinase 4 (Homo sapiens, UniProt Q96SW2+Q9NWZ3), sequence (Q96SW2 whole entry): as the sequence (Q96SW2 whole entry) above

[6] = Volume of distribution at steady state in rat at 2 mg/kg, iv by LC-MS/MS analysis; type: ADME, organism-based; settings: in vivo, read-out: Vdss
[7] = Clearance in rat at 2 mg/kg, iv by LC-MS/MS analysis; type: ADME, organism-based; settings: in vivo
[8] = AUC in rat at 10 mg/kg, po by LC-MS/MS analysis; type: ADME, organism-based; settings: in vivo
[9] = Oral bioavailability in rat at 10 mg/kg by LC-MS/MS analysis; type: ADME, organism-based; settings: in vivo; for F: po, 10 mg/kg
[10] = Half life in rat at 2 mg/kg, iv by LC-MS/MS analysis; type: ADME, organism-based; settings: in vivo
[11] = biological target: T1, Protein cereblon/Interleukin-1 receptor-associated kinase 4; assay: PROTAC activity at CRBN/IRAK4 in human OCI-Ly10 cells assessed as induction of IRAK4 degradation measured after 24 hrs by MSD assay relative to control; type: cell-based
Target sequence in this assay (Q96SW2 whole entry, looked up): as the sequence (Q96SW2 whole entry) above
Target sequence in this assay (Q9NWZ3 whole entry, looked up): as the sequence (Q9NWZ3 whole entry) above

SMILES | microsomal CLint at 1 µM [1] [µL/min/mg] | DC50 [2] [nM] | microsomal CLint at 1 µM [3] [µL/min/mg] | IC50 (OCI-Ly10) [nM] | IC50 (Protein cereblon) [nM] | DC50 (Cereblon/Ikaros) [nM] | Papp A→B at 2 h, 1 µM [4] [×10⁻⁶ cm/s] | Kd [5] [nM] | Vd [6] [L/kg] | clearance [7] [mL/min/kg] | AUC ([8]; read-out: AUC) [µM·h] | bioavailability [9] [%] | half-life [10] [h] | Emax [11] [%] | AUC ([8]; po, 10 mg/kg) [µM·h] | F [9] [%]
COc1cc2nn([C@H]3CC[C@H](CN(C)CCCO[C@H]4C[C@H](Nc5cccc6c5C(=O)N(C5CCC(=O)NC5=O)C6=O)C4)CC3)cc2cc1NC(=O)c1cccc(C(F)(F)F)n1 (some centres undefined) | 10 | 29 | 19 | 360 | 23 | 28 | 2.4 |  |  |  |  |  |  |  |  | 
CN(CCCO[C@H]1C[C@H](Nc2cccc3c2C(=O)N(C2CCC(=O)NC2=O)C3=O)C1)C[C@H]1CC[C@H](n2cc3cc(NC(=O)c4cccc(C(F)(F)F)n4)ccc3n2)CC1 (some centres undefined) | 11 | 33 | 102 | 75 | 24 | 10 | 5.5 |  |  |  |  |  |  |  |  | 
CC(C)(O)c1cc2nn([C@H]3CC[C@H](CO)CC3)cc2cc1NC(=O)c1cccc(C(F)(F)F)n1 |  |  |  |  |  |  |  | 0.37 |  |  |  |  |  |  |  | 
CN(CCCOCCCNc1cccc2c1C(=O)N(C1CCC(=O)NC1=O)C2=O)C[C@H]1CC[C@H](n2cc3cc(NC(=O)c4cccc(C(F)(F)F)n4)c(C(C)(C)O)cc3n2)CC1 (some centres undefined) | 53 | 12 | 60 | 270 | 32 | 21 | 7.5 | 0.66 |  |  |  |  |  |  |  | 
CC(C)(O)c1cc2nn(CCCCCCCCCNc3cccc4c3C(=O)N(C3CCC(=O)NC3=O)C4=O)cc2cc1NC(=O)c1cccc(C(F)(F)F)n1 (centres undefined) |  | 3300 |  | 588 | > 1100 | 55 |  | 320 |  |  |  |  |  |  |  | 
Nc1cccc2c1C(=O)N(C1CCC(=O)NC1=O)C2=O (centres undefined) [POMALIDOMIDE] |  |  |  | 1400 |  |  |  |  |  |  |  |  |  |  |  | 
CN(CCCN(C)c1cccc2c1C(=O)N(C1CCC(=O)NC1=O)C2=O)C[C@H]1CC[C@H](n2cc3cc(NC(=O)c4cccc(C(F)(F)F)n4)c(C(C)(C)O)cc3n2)CC1 (some centres undefined) | 250 | 14 | 300 | 308 | 200 | 282 | 4.2 | 0.64 |  |  |  |  |  |  |  | 
COc1cc2nc([C@H]3CC[C@H](CN4CC5(CC(CCNc6cccc7c6C(=O)N(C6CCC(=O)NC6=O)C7=O)C5)C4)CC3)cn2cc1NC(=O)c1cccc(C(F)(F)F)n1 (some centres undefined) | < 1.8 | 38 | < 1.8 | 154 |  | 26 | 0.64 |  | 43 | 40 | 0.01 | < 1 | 15 |  |  | 
CN(C[C@H]1CC[C@H](n2cc3cc(NC(=O)c4cccc(C(F)(F)F)n4)c(C(C)(C)O)cc3n2)CC1)[C@H]1CCC2(CC1)C[C@H](Nc1cccc3c1C(=O)N(C1CCC(=O)NC1=O)C3=O)C2 (some centres undefined) |  |  |  |  |  |  |  |  |  |  |  |  |  | 86 |  | 
CN(CCCO[C@H]1C[C@@H](Nc2cccc3c2C(=O)N(C2CCC(=O)NC2=O)C3=O)C1)C[C@H]1CC[C@H](n2cc3cc(NC(=O)c4cccc(C(F)(F)F)n4)c(C(C)(C)O)cc3n2)CC1 (some centres undefined) | 16 | 43 | 26 | 166 | 75 | 10 | 2.8 | 0.34 |  |  |  |  |  |  |  | 
O=C1CCC(N2C(=O)c3cccc(NCC4CC5(CCN(C[C@H]6CC[C@H](n7cc8cc(NC(=O)c9cccc(C(F)(F)F)n9)c(C(F)F)cc8n7)CC6)CC5)C4)c3C2=O)C(=O)N1 (some centres undefined) | < 1.8 | 56 | < 1.8 | 142 | 58 | 69 | 2.7 |  | 11 |  |  |  | 29 |  | 1.5 | 16
COc1cc2nn([C@H]3CC[C@H](CN4CCC5(CC4)CC(CNc4cccc6c4C(=O)N(C4CCC(=O)NC4=O)C6=O)C5)CC3)cc2cc1NC(=O)c1cccc(C(F)(F)F)n1 (some centres undefined) | 1.6 | 16 | 2.7 | 84 | 66 | 43 | 1.3 |  | 11 |  |  |  | 25 |  | 1.88 | 11
